Laboratory results from patent US20160206688A1, “METHODS FOR TREATING BACTEREMIA AND OSTEOMYELITIS USING ORITAVANCIN” (THE MEDICINES COMPANY, priority 2013, published 2016).
Values after ≈ are worked out from the molar mass of the structure shown.

Tests used:
E. faecalis = experiment: Broth microdilution MIC, European bacteraemia isolates 2010-2012; type: cell-based, Enterococcus faecalis
Description: A total of 2,904 clinical strains responsible for documented bacteremia among unique hospitalized patients in 38 hospitals in 11 European Union countries. Israel, Russia, Turkey and Ukraine were included in this study (2010-2012). Isolates were submitted to a central monitoring laboratory (JMI Laboratories, North Liberty. Iowa. USA), following previously established protocols. Bacterial species identification was performed by using an automated system (Vitek®2; bioMèrieux, Hazelwood, Mo., USA) or conventional biochemical algorithms, as required.
Isolates were tested for susceptibility by broth microdilution methods following the Clinical and Laboratory Standards Institute (CLSI; M07-A9, 2012) document. Susceptibility testing was performed in cation-adjusted Mueller-Hinton broth (CA-MHB) using dry-form panels manufactured by Thermo Fisher Scientific, formerly TREK Diagnostics Systems/Sensititre (Cleveland. Ohio, USA). These panels provide results equivalent to the CLSI-approved broth microdilution method supplemented with 0.002% polysorbate-80.
Quality assurance was performed by concurrent testing of CLSI-recommended (M100-S23, 2013) strains: E. faecalis ATCC 29212 and S. aureus ATCC 29213. Interpretation of comparator MIC results was in accordance with published CLSI (M100-S23) and European Committee on Antimicrobial Susceptibility Testing (EUCAST, 2013) criteria.

MDR SA = experiment: Microdilution MIC against MDR SA by specimen source; type: cell-based, S. aureus
Description: 456 clinical, single-patient, non-consecutive, MDR SA isolates from the known specimen sources collected in 2011-2012 were analyzed. MDR was defined as resistant to ≧3 of the following: erythromycin, clindamycin, gentamicin, levofloxacin, and trimethoprim/sulfamethoxazole. 382 were MRSA and 74 were MSSA. MICs were determined by microdilution testing in accordance with CLSI M7 and M100 guidelines. Although other comparator drugs were tested, this analysis focuses on the activities of ORI, VAN, DAP, and LZD.

[1] = E. faecalis (445), at ≦0.008 mg/L
[2] = Enterococcus faecalis, read-out: cumulative % inhibited at MIC

CN[C@H](CC(C)C)C(=O)N[C@H]1C(=O)N[C@@H](CC(N)=O)C(=O)N[C@H]2C(=O)N[C@H]3C(=O)N[C@H](C(=O)N[C@H](C(=O)O)c4cc(O)cc(O)c4-c4cc3ccc4O)[C@H](O[C@H]3C[C@](C)(N)[C@@H](O)[C@H](C)O3)c3ccc(c(Cl)c3)Oc3cc2cc(c3O[C@@H]2O[C@H](CO)[C@@H](O)[C@H](O)[C@H]2O[C@H]2C[C@](C)(NCc3ccc(-c4ccc(Cl)cc4)cc3)[C@@H](O)[C@H](C)O2)Oc2ccc(cc2Cl)[C@H]1O [Oritavancin, N-(4-(4-chlorophenyl)benzyl)A82846B]
Number inhibited at MIC (E. faecalis; E. faecalis (445), at 0.015 mg/L): 204 | Number inhibited at MIC (E. faecalis; E. faecalis (445), at 0.03 mg/L): 89 | Number inhibited at MIC (E. faecalis; E. faecalis (445), at 0.06 mg/L): 30 | Number inhibited at MIC (E. faecalis; E. faecalis (445), at 0.12 mg/L): 13 | Number inhibited at MIC (E. faecalis; E. faecalis (445), at 0.25 mg/L): 4 | Number inhibited at MIC (E. faecalis; E. faecalis (445), at 0.5 mg/L): 1 | Number inhibited at MIC (E. faecalis; [1]): 104 | cumulative % inhibited at MIC (E. faecalis; [1]): 23.4% | MIC50 (E. faecalis; Enterococcus faecalis): 0.015 µg/mL (≈ 0.00837 µM) | MIC90 (E. faecalis; Enterococcus faecalis): 0.06 µg/mL (≈ 0.0335 µM) | MIC (E. faecalis; Enterococcus faecalis, read-out: MIC values): 0.12 to 0.5 µg/mL (≈ 0.0669 to 0.279 µM) | inhibition at 0.015 µg/mL (E. faecalis; [2]): 69.2% | inhibition at 0.03 µg/mL (E. faecalis; [2]): 89.2% | inhibition at 0.06 µg/mL (E. faecalis; [2]): 96% | inhibition at 0.12 µg/mL (E. faecalis; [2]): 98.9% | inhibition at 0.25 µg/mL (E. faecalis; [2]): 99.8% | inhibition at 0.5 µg/mL (E. faecalis; [2]): 100% | MIC 50% (E. faecalis; Table 1, E. faecalis (445)): 0.015 µg/mL (≈ 0.00837 µM) | MIC 90% (E. faecalis; Table 1, E. faecalis (445)): 0.06 µg/mL (≈ 0.0335 µM) | MIC Range (E. faecalis; Table 2, E. faecalis (445), includes four VanA-phenotype strains): ≦0.008-0.5 mg/L | concentration inhibiting all strains (E. faecalis; all E. faecalis, including resistant subsets): ≤ 0.5 mg/L | MIC50 (MDR SA; Blood, n = 108): 0.03 µg/mL (≈ 0.0167 µM) | MIC90 (MDR SA; Blood, n = 108): 0.12 µg/mL (≈ 0.0669 µM) | Mode (MIC) (MDR SA; Blood, n = 108): 0.03 µg/mL | Range (MIC) (MDR SA; Blood, n = 108, in µg/mL): 0.015-0.25 | MIC50 (MDR SA; Respiratory, N = 157): 0.03 µg/mL (≈ 0.0167 µM) | MIC90 (MDR SA; Respiratory, N = 157): 0.06 µg/mL (≈ 0.0335 µM) | Mode (MIC) (MDR SA; Respiratory, N = 157): 0.03 µg/mL | Range (MIC) (MDR SA; Respiratory, N = 157, in µg/mL): 0.008-0.25 | MIC50 (MDR SA; Skin/Wound, N = 191): 0.03 µg/mL (≈ 0.0167 µM) | MIC90 (MDR SA; Skin/Wound, N = 191): 0.06 µg/mL (≈ 0.0335 µM) | Mode (MIC) (MDR SA; Skin/Wound, N = 191): 0.03 µg/mL | Range (MIC) (MDR SA; Skin/Wound, N = 191): ≦0.002-0.25
